Literature values as cited in patent US20250241996A1, “COMBINATORIAL, AND ROTATIONAL COMBINATORIAL THERAPIES” (Starrock Pharma Inc., priority 2022, published 2025).
Like-named read-outs stand apart in the source and are kept apart here.

Key:
[1] = Model: in vitro; cited from earlier work
[2] = oral administration; mice; cited from earlier work
[3] = intravenous; 18 obese patients; cited from earlier work
[4] = injections, 4-week study; saline 0.5±0.5 kg; cited from earlier work
[5] = cited from earlier work; for average weight reduction (efficacy estimate): placebo 2.4%; for treatment discontinuation rate due to adverse events: placebo 2.6%; for overall treatment discontinuation rate: placebo 26.4%; for people achieving at least 5% body weight reductions: placebo 28%; for Body weight change from baseline / Estimated mean weight change / Patients with weight loss of >5% / Patients with weight loss of >20%: week 72
[6] = cited from earlier work
[7] = cited from earlier work; remark: listed apart in the source
[8] = two hours after infusion, P<0.001, cited from earlier work

Molecule: O=C1CCC(N2C(=O)c3ccccc3C2=O)C(=O)N1 (stereo not drawn) [Thalidomide]
- Results [1]: decrease TNF-α from Aβ42-

Molecule: enterostatin
- serum cholesterol [2]: reduce serum cholesterol after oral administration in mice
- feelings of hunger, satiety, or food preference [3]: did not impact feelings of hunger, satiety, or food preference

Molecule: oxyntomodulin: 37-amino acid peptide hormone (SEQ ID NO:4) (HSQGTFTSDYSKYLDSRRAQDFVQWLMNTKRNRNNIA; Oxyntomodulin (OXY/OXM 53-89); listed as Homo sapiens)
- average weight loss [4]: 2.3 ± 0.4 kg

Molecule: tirzepatide
- average weight reduction (efficacy estimate) ([5]; 5 mg): 16.0%
- treatment discontinuation rate due to adverse events ([5]; 5 mg): 4.3%
- overall treatment discontinuation rate ([5]; 5 mg): 14.3%
- people achieving at least 5% body weight reductions ([5]; 5 mg): 89%
- average weight reduction (efficacy estimate) ([5]; 10 mg): 21.4%
- treatment discontinuation rate due to adverse events ([5]; 10 mg): 7.1%
- overall treatment discontinuation rate ([5]; 10 mg): 16.4%
- people achieving at least 5% body weight reductions ([5]; 10 mg): 96%
- average weight reduction (efficacy estimate) ([5]; 15 mg): 22.5%
- treatment discontinuation rate due to adverse events ([5]; 15 mg): 6.2%
- overall treatment discontinuation rate ([5]; 15 mg): 15.1%
- people achieving at least 5% body weight reductions ([5]; 15 mg): 96%
- body weight lost (up to) ([5]; 5, 10, 15 mg, 72 weeks): ≤ 52 lb.
- Body weight change from baseline ([5]; SC 5 mg): -16 kg
- Estimated mean weight change ([5]; SC 5 mg): −15%
- Patients with weight loss of >5% ([5]; SC 5 mg): 85%
- Patients with weight loss of >20% ([5]; SC 5 mg): 30%
- Body weight change from baseline ([5]; SC 10 mg): -22 kg
- Estimated mean weight change ([5]; SC 10 mg): −19.5%
- Patients with weight loss of >5% ([5]; SC 10 mg): 89%
- Patients with weight loss of >20% ([5]; SC 10 mg): 50%
- Body weight change from baseline ([5]; SC 15 mg): -24 kg
- Estimated mean weight change ([5]; SC 15 mg): −20.9%
- Patients with weight loss of >5% ([5]; SC 15 mg): 91%
- Patients with weight loss of >20% ([5]; SC 15 mg): 57%
- trial participants experiencing abdominal pain ([5]; in vivo): 5%
- trial participants experiencing constipation ([5]; in vivo): 7%
- trial participants experiencing diarrhea ([5]; in vivo): 17%
- trial participants experiencing nausea ([5]; in vivo): 18%
- trial participants experiencing vomiting ([5]; in vivo): 9%
- long-term blood sugar control (A1C) and weight loss compared to semaglutide ([6]; human, in vivo): significantly better long-term blood sugar control (i.e., A1C) and weight loss compared to semaglutide
- body weight reduction ([6]; phase III, type 2 diabetes, semaglutide comparator at 1 mg): > 15%

B1: adiponectin: 244-amino-acid-long polypeptide (SEQ ID NO:2) (protein, listed as Homo sapiens)
chain: MLLLGAVLLLLALPGHDQETTTQGPGVLLPLPKGACTGWMAGIPGHPGHNGAPGRDGRDGTPGEKGEKGDPGLIGPKGDIGETGVPGAEGPRGFPGIQGRKGEPGEGAYVYRSAFSVGLETYVTIPNMPIRFTKIFYNQQNHYDGSTGKFHCNIPGLYYFAYHITVYMKDVKVSLFKKDKAMLFTYDQYQENNVDQASGSVLLHLEVGDQVWLQVYGEGERNGLYADNDNDSTFTGFLLYHDTN
modifications: Adiponectin
- half-life [7]: 2.5 h

B2: PYY: 36-amino acid peptide released from cells in the ileum and colon (peptide, listed as Homo sapiens)
chain: MVFVRRPWPALTTVLLALLVCLGALVDAYPIKPEAPREDASPEELNRYYASLRHYLNLVTRQRYGKRDGPDTLLSKTFFPDGEDRPVRSRSEGPDLW
modifications: Peptide tyrosine-tyrosine (PYY)
notes: 36-amino acid peptide released from cells in the ileum and colon
- decrease of caloric intake during a buffet lunch ([8]; lean subjects): 31%
- decrease of caloric intake during a buffet lunch ([8]; obese subjects): 30%
